{
  "source": "patent US8557971B2",
  "about": "“Chimeric viral envelopes” (Aarhus Universitet, priority 2006, dated 2013)",
  "key": {"NIH 3T3": {"tested_on": "NIH 3T3", "test": "Titer (transduction) of chimeric envelope constructs on NIH 3T3 cells", "assay_type": "cell-based, mouse", "conditions": "qualitative; FIG. 12", "protocol": "Transfections were done by calcium phosphate precipitation method, described by Graham and van der Eb (Graham and van der Eb, 1973) leaving the calcium precipitate on the cells for 24 hours. 293T cells were transfected using 8 μg of envelope expression plasmid, 2 μg gagpol expression plasmid (Morita et al., 2000) and 1 μg of an EGFP expressing plasmid. EGFP was included as a visual aid to determine the success of transfections. Medium on the transfected cells was renewed every day until it was used for transduction, usually between 48 and 72 hours after transfection, depending on the number of green fluorescing cells.\nThe day before transduction, medium was changed from fetal calf serum to newborn calf serum containing medium. Semi-packaging cells (Bahrami et al., 2003) were seeded at concentration of 10^4 cells/cm^2 24 hours before transduction.\nSupernatant from transfected cells was filtered (0.22μ). The supernatant with 6 μg/mL polybrene was added to the target cells. 24 hours later, the infected cells were selected using medium described before containing 600 μg/mL G418 for 10 days."}, "CXCR4": {"target": "T1, CXCR4 (Homo sapiens, UniProt P61073)", "T1 construct": "expressed in transfected cells; host or cells: D17 (dog) cells carrying CD4 and CXCR4", "T1 sequence (P61073 whole entry)": "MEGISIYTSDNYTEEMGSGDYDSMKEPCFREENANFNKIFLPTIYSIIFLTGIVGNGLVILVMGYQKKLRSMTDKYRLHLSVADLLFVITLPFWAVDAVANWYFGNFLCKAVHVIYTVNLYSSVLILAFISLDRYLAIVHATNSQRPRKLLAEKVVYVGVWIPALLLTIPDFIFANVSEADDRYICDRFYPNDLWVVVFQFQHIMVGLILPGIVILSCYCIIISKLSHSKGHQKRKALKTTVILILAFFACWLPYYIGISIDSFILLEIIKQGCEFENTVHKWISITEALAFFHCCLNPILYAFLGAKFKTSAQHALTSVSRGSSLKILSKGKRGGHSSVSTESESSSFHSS", "test": "Flow cytometry of cell surface expression of CXCR4 on transduced D17 CD4 CXCR4 cells", "assay_type": "cell-based", "conditions": "D17 CD4 CXCR4 cells transduced with envelope vector; FIG. 6", "protocol": "Method: Flow cytometric analysis was carried out of Cell Surface Expression (CSE) of CXCR4 of cells transduced with vectors comprising the chimeric envelope polypeptide of the present invention. D17 CD4 CXCR4 cells were transduced with a vector expressing SL3-2 envelope with V3 loop inserted at positions indicated.\n[…]; 315:51-61). The virus containing supernatant was subsequently used to transduce the D17 CXCR4CD4 cells.\nSix chimeric variants have been tested (sequences used shown in SEQ ID NO: 3-8 and 42-47). In all panels the control D17 CD4 CXCR4 cells with […] envelope only (without the V3 insert) was tested against the same envelope comprising a V3 loop variant.\nProtocol for flow cytometry: • Harvest cells (by nice trypzination) and spin down gently (1200 rpm, 5 min) • Keep cells on ice in all subsequent steps. • Wash once in wash buffer (2% Serum, 98% PBS—cold) ? […]"}},
  "data": [
    {"substance": "wild-type SL3-2: SL3-2 murine leukaemia virus envelope polypeptide (SEQ ID NO: 2 / 60) [reference compound]", "values": [
      {"measurement": "Infection of NIH mouse cells", "setting": "NIH 3T3", "value": "can be infected"},
      {"measurement": "Binding of anti CXCR-4 antibody / CXCR-4 cell surface expression level", "setting": "CXCR4", "value": "does not affect the expression levels of CXCR-4"}
    ]}
  ]
}
